In US20240287048A1, “SUBSTITUTED ACYL SULFONAMIDES FOR TREATING CANCER” (The Broad Institute, Inc., priority 2020, published 2024):

Columns and labels:
KAT6A = target: T1, KAT6A (Homo sapiens, UniProt Q92794); test: Kat6a activity assay (TR-FRET, acetylation of biotinylated histone H4 peptide); assay type: biochemical; conditions: recombinant human His-tagged Kat6a (amino acids 194-810), 60 mins at 22° C., read-out: KAT6A-DPF/HAT domain IC50 [mol/l] (arithmetic mean)
T1 construct: Recombinant human His-tagged Kat6a protein (amino acids 194-810); His; made in house; host or cells: Baculovirus-infected Sf9 insect cells
From the text: Kat6a inhibitory activities of the compounds described in the present invention were quantified using a Fluorescence Resonance Energy Transfer (TR-FRET) assay which measures acetylation of a synthetic, biotinylated Histone-H4-derived peptide by the enzyme.
Recombinant human His-tagged Kat6a protein (amino acids 194-810), was purified in-house from Baculovirus-infected insect cells (Sf9). Histone H4 peptide (amino acids 1-24, […]-VLRD-K(Btn)-amide), which was used as substrate, was synthesized by Biosyntan GmbH, Berlin, Germany. Acetyl Coenzyme A was purchased from Sigma-Aldrich (#A-2056).
Kat6a was incubated for 60 mins at 22° C. in the presence of different concentrations of test substances (0 μM, and within the range 0.01-20 μM) in assay buffer [25 mM Tris/HCl pH 8, 1 mM EGTA, 2.5 mM Glutathion, 0.02% Chicken Albumin, 0.05% Pluronic F127, 25 mM NaCl, 220 nM H4 peptide and 600 nM Acetyl Coenzyme A].
The reaction was stopped by addition of Detection Solution (25 mM HEPES pH 7.5, 0.1% BSA, 22 nM SAXL665 (Cisbio #610SAXLE), 100 μM Anacardic Acid (Enzo #ALX-270-381), 1 nM Anti-Histone H4 (ACETYL K8) Antibody (ABCAM #AB15823) and 0.5 nM Anti-Rabbit IgG Eu (Perkin Elmer #AD0083).
The fluorescence emission at 620 nm and 665 nm after excitation at 330-350 nm was measured in a TR-FRET measuring instrument, for instance a Rubystar or a Pherastar (both from BMG Lab Technologies, Offenburg, Germany) or a Viewlux (Perkin-Elmer). The ratio of the emission at 665 nm and at […] was used as indicator of the amount of acetylated peptide.
The resulting data (ratio) were normalized, taking 0% inhibition as the mean value of control measurements where all reagents were included. In this case 50 nl DMSO were used instead of compounds. […] IC50 values were determined by regression analysis based on a 4 parameter equation (minimum, maximum, ICM, Hill; Y=Max+(Min−Max)/(1+(X/ICso) Hill) using the Screener Software (Genedata).

[1] = tested on: ESR1 transcription in MVLN cells; test: Repression of ESR1 transcription, MVLN luciferase reporter assay; assay type: cell-based; conditions: Homo sapiens, luciferase signal after 24 h, read-out: MVLN reporter assay, IC50[M] (arithmetic mean)
From the text: KAT6A controls transcription of the ESR1 gene in breast cancer cells. Compound treatment that interferes with this mechanism was quantified using MVLN cells. These cells constitutively express the ER and are stably transfected with the luciferase (LUC) reporter gene and the corresponding hormone responsive element derived from the 5′-flanking region of the Xenopus Vitellogenin A2 gene (Pons et al., 1990, Demirpense et al., 1993, Joyeux et al., 1993). The repressive effect on ERα transcription activity of a test chemical is directly related to the luciferase measured in the lysate of treated MVLN cells.
Each sample was prepared as duplicate and rim wells were excluded. For luciferase signal determination 100 μl of a 1:1 mixture of Steadylite plus (Perkin Elmer; 6016759) and assay medium was added after 24 h for 15 minutes and measured in Victor X3 (Perkin Elmer). To exclude any effects caused by cell loss during the treatment, cell density was determined using Alamar Blue (Invitrogen; DAL1100). Prior to the luciferase measurement 10 μl Alamar Blue were added to each well and the plates were incubated for 2 h in the incubator. Then fluorescence was measured with Victor X3 (Perkin Elmer) at 530 nm/590 nm.

T1 sequence (Q92794 194-810): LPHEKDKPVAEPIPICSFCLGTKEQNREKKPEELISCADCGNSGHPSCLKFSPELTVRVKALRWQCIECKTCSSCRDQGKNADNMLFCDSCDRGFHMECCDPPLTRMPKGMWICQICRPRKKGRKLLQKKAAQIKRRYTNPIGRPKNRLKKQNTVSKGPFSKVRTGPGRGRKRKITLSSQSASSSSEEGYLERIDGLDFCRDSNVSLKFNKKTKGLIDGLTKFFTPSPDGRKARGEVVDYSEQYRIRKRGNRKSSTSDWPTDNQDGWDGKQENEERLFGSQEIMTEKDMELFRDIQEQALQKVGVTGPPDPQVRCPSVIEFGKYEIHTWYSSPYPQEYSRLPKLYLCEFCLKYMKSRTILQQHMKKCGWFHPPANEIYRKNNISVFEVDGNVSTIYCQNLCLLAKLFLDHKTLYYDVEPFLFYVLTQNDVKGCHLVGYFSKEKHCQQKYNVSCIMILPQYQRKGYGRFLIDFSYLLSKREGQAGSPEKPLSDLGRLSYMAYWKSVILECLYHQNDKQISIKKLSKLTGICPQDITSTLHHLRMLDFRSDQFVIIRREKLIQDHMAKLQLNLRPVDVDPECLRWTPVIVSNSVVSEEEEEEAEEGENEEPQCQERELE

Compound | IC50 (KAT6A) [nM] | IC50 [1] [M]
CCOc1c(F)cccc1S(=O)(=O)NC(=O)c1cc2c(F)cc(C3CC3)cc2o1 [Example 28, 6-Cyclopropyl-N-(2-ethoxy-3-fluoro-phenyl)sulfonyl-4-fluoro-benzofuran-2-carboxamide] | 106 | 1.7e-06
CCOc1cc(F)ccc1S(=O)(=O)NC(=O)c1cc2c(F)cc(C3CC3)cc2o1 [Example 30, 6-Cyclopropyl-N-(2-ethoxy-4-fluoro-phenyl)sulfonyl-4-fluoro-benzofuran-2-carboxamide] | 37.3 | 2.84e-07
CCOc1ccc(C(F)(F)F)cc1S(=O)(=O)NC(=O)c1cc2c(F)cc(C3CC3)cc2o1 [Example 31, 6-Cyclopropyl-N-[2-ethoxy-5-(trifluoromethyl)phenyl]sulfonyl-4-fluoro-benzofuran-2-carboxamide] | 8.99 | 2.31e-07
CCOc1ccc(F)cc1S(=O)(=O)NC(=O)c1cc2c(F)cc(C3CC3)cc2o1 [Example 32, 6-Cyclopropyl-N-(2-ethoxy-5-fluoro-phenyl)sulfonyl-4-fluoro-benzofuran-2-carboxamide] | 55.6 | 4.23e-07
CCOc1ccc(Oc2ccccc2)cc1S(=O)(=O)NC(=O)c1cc2c(F)cc(C3CC3)cc2o1 [Example 33, 6-Cyclopropyl-N-(2-ethoxy-5-phenoxy-phenyl)sulfonyl-4-fluoro-benzofuran-2-carboxamide] | 6.32 | 1.74e-06
CCOc1ccc(OC(F)(F)F)cc1S(=O)(=O)NC(=O)c1cc2c(F)cc(C3CC3)cc2o1 [Example 34, 6-Cyclopropyl-N-[2-ethoxy-5-(trifluoromethoxy)phenyl]sulfonyl-4-fluoro-benzofuran-2-carboxamide] | 20.8 | 1.42e-06
CC(C)c1ccc(OCc2ccccc2)c(S(=O)(=O)NC(=O)c2cc3c(F)cc(C4CC4)cc3o2)c1 [Example 35, N-(2-Benzyloxy-5-isopropyl-phenyl)sulfonyl-6-cyclopropyl-4-fluoro-benzofuran-2-carboxamide] | 5.99 | 2.19e-07
CC(C)c1ccc(OCC2CC2)c(S(=O)(=O)NC(=O)c2cc3c(F)cc(C4CC4)cc3o2)c1 [Example 36, 6-Cyclopropyl-N-[2-(cyclopropylmethoxy)-5-isopropyl-phenyl]sulfonyl-4-fluoro-benzofuran-2-carboxamide] | 3.01 | 1.41e-07
CCCOc1ccccc1S(=O)(=O)NC(=O)c1cc2c(F)cc(C3CC3)cc2o1 [Example 40, 6-Cyclopropyl-4-fluoro-N-(2-propoxyphenyl)sulfonyl-benzofuran-2-carboxamide] | 24.8 | 6.63e-07
CC(C)c1ccc(OCC(F)(F)F)c(S(=O)(=O)NC(=O)c2cc3c(F)cc(C4CC4)cc3o2)c1 [Example 41, 6-Cyclopropyl-4-fluoro-N-[5-isopropyl-2-(2,2,2-trifluoroethoxy)phenyl]sulfonyl-benzofuran-2-carboxamide] | 4.99 | 2.98e-07
O=C(NS(=O)(=O)c1ccccc1)c1cc2c(OC(F)F)cc(C3CC3)cc2o1 [Example 46, N-(benzenesulfonyl)-6-cyclopropyl-4-(difluoromethoxy)benzofuran-2-carboxamide] | 148 | 1.77e-05
O=C(NS(=O)(=O)c1ccccc1-c1ccccc1)c1cc2c(OC(F)F)cc(C3CC3)cc2o1 [Example 48, 6-Cyclopropyl-4-(difluoromethoxy)-N-(2-phenylphenyl)sulfonyl-benzofuran-2-carboxamide] | 26.7 | 5.54e-06
CCOc1ccccc1S(=O)(=O)NC(=O)c1cc2c(OC(F)F)cc(C3CC3)cc2o1 [Example 49, 6-Cyclopropyl-4-(difluoromethoxy)-N-(2-ethoxyphenyl)sulfonyl-benzofuran-2-carboxamide] | 28.6 | 6.97e-06
CCOc1ccccc1S(=O)(=O)NC(=O)c1cc2c(-n3ccnc3)cc(C3CC3)cc2o1 [Example 58, 6-Cyclopropyl-N-(2-ethoxyphenyl)sulfonyl-4-imidazol-1-yl-benzofuran-2-carboxamide] | 39.5 | > 2e-05
CC(C)(C)c1ccc(OC2CC2)c(S(=O)(=O)NC(=O)c2cc3c(F)cc(C4CC4)cc3o2)c1 [Example 59, N-((5-(tert-butyl)-2-cyclopropoxyphenyl)sulfonyl)-6-cyclopropyl-4-fluorobenzofuran-2-carboxamide] | 3.58 | 1.04e-07
CC(C)(C)c1ccc(OCc2ccccc2)c(S(=O)(=O)NC(=O)c2cc3c(F)cc(C4CC4)cc3o2)c1 [Example 60, N-[(2-(Benzyloxy)-5-(tert-butyl)phenyl)sulfonyl]-6-cyclopropyl-4-fluorobenzofuran-2-carboxamide] | 2.67 | 8.24e-08
CC(C)(C)c1ccc(OCC2CC2)c(S(=O)(=O)NC(=O)c2cc3c(F)cc(C4CC4)cc3o2)c1 [Example 61, N-((5-(tert-butyl)-2-(cyclopropylmethoxy)phenyl)sulfonyl)-6-cyclopropyl-4-fluorobenzofuran-2-carboxamide] | 2.92 | 1.11e-07
CC(C)(C)c1ccc(OCC(F)(F)F)c(S(=O)(=O)NC(=O)c2cc3c(F)cc(C4CC4)cc3o2)c1 [Example 62, N-((5-(tert-butyl)-2-(2,2,2-trifluoroethoxy)phenyl)sulfonyl)-6-cyclopropyl-4-fluorobenzofuran-2-carboxamide] | 4.16 | 2.4e-07
CC(C)(C)c1ccc(OC2CCC2)c(S(=O)(=O)NC(=O)c2cc3c(F)cc(C4CC4)cc3o2)c1 [Example 63, N-((5-(tert-Butyl)-2-cyclobutoxyphenyl)sulfonyl)-6-cyclopropyl-4-fluorobenzofuran-2-carboxamide] | 2.46 | 2.24e-07
CC(C)Oc1ccc(C(C)(C)C)cc1S(=O)(=O)NC(=O)c1cc2c(F)cc(C3CC3)cc2o1 [Example 64, N-((5-(tert-Butyl)-2-isopropoxyphenyl)sulfonyl)-6-cyclopropyl-4-fluorobenzofuran-2-carboxamide] | 4.33 | 1.76e-07
CC(C)c1ccc(OC2CCC2)c(S(=O)(=O)NC(=O)c2cc3c(F)cc(C4CC4)cc3o2)c1 [Example 65, N-[(2-Cyclobutoxy-5-isopropylphenyl)sulfonyl]-6-cyclopropyl-4-fluorobenzofuran-2-carboxamide] | 2.09 | 1.49e-07
CC(C)c1ccc(OCC2CC2(F)F)c(S(=O)(=O)NC(=O)c2cc3c(F)cc(C4CC4)cc3o2)c1 (stereo not shown) [Example 67, 6-Cyclopropyl-N-{(2-[(2,2-difluorocyclopropyl)methoxy)-5-isopropylphenyl]sulfonyl}-4-fluorobenzofuran-2-carboxamide] | 4.5 | 8.29e-08
CCOc1ccc(C(C)C)cc1S(=O)(=O)NC(=O)c1cc2c(F)cc(C3CC3)cc2o1 [Example 72, 6-Cyclopropyl-N-(2-ethoxy-5-isopropyl-phenyl)sulfonyl-4-fluoro-benzofuran-2-carboxamide] | 4.79 | 1.23e-07
